The values that follow come from patent US11759480B2, “Compositions and methods for CAR T cell therapy” (ENDOCYTE, INC., priority 2017, dated 2023).

SMILES strings stand for the structures.

One data set has as its system MDA-MB-231 tumor. The data set can be described thus: Enumeration and characterization of FITC CAR T cells in blood after rescue (Example 33). Type of data set: in vivo, NSG mice. As to the method:
Plasma was removed from predetermined volumes of whole EDTA treated blood with a 10-minute 4° C. spin at 3000 g and the resulting cell pellets were incubated with a 10-fold volume of room temperature 1×RBC lysis solution [prepared from 10× stock; Biolegend, catalog #420301] for 5 minutes, centrifuged at 400 g for 5 min, and the cell pellet was washed in a 10-fold volume of ice cold phosphate buffered saline pH=7.4 and filtered with a 40 μm nylon filter and then pelleted again. The leukocyte pellets were then resuspended in flow cytometry staining solution [1% bovine serum albumin, 50 mg/mL human IgG (Equitech Bio, cat #SLH56-0001), 0.9% sodium azide in a phosphate buffered saline, pH=7.4] supplemented with both anti-mouse FcγIII/II receptor (CD16/CD32) block [clone 2.4G2; BD Bioscience, catalog #553142 at 1:100 (v/v) dilution] and anti-human Fc Block [BD Biosciences, catalog #564220 at 1:50 (v/v) dilution]. Leukocyte surface marker staining was performed with the addition of the following fluorochrome conjugated monoclonal antibodies added to each sample for 20 minutes on ice in the dark: anti-human CD45-APCeF780 [clone HI30, eBioscience #47-0459-42 at 1:20 (v/v) dilution], anti-human CD137-BV650 [clone 4B4-1, BD Bioscience #564092 at 1:20 (v/v) dilution], anti-human CD8α-PECy7 [clone RPA-T8, BD Bioscience, catalog #557746 at 1:20 (v/v) dilution], anti-human CD4-Percpe710 [clone SK3, eBioscience catalog #46-0047-42 at 1:20 (v/v) dilution]. After leukocyte staining, cells were washed with PBS and resuspended in cold PBS containing 53,000 CountBright™ beads [Invitrogen catalog #C36950] and transferred to flow cytometry collection tubes. Flow cytometry data was collected on the Gallios flow cytometer (Beckman Coulter, Brea, Calif.), where a minimum of 15,000 CountBright™ bead events were collected in an attempt to collect enough leukocyte events for an accurate count of infused CART cells in each mouse blood sample. Determination of the concentration of CAR T cells in each blood sample was calculated according to Invitrogen's instructions. Briefly, CAR T cells were identified as human CD45+ GFP+ events and were easily distinguished and counted using the Kaluza™ flow cytometry software. CountBright™ beads were uniformly labeled with a fluorochrome not utilized in the antibody panel used to identify the CAR T cells and were easily distinguished from the leukocytes and bead events were counted. Because 53,000 CountBright™ beads were added to each sample tube, we calculated the ratio of 53,000 total beads to bead events collected per sample and set the bead ratio equivalent to the unknown number of CAR T cells in each sample divided by the known number of CAR T cell events collected. Solving for the unknown gave us the number of CAR T cells isolated from each blood sample of known volumes. The number of CAR T cells in the circulation of each infused mouse was then represented on the graphs as the total number of CART cells per 50 μL of whole blood analyzed. Statistical significance was determined by utilizing an unpaired, two-tailed, students t-test with significance set at p<0.05 for comparisons between each of the three groups of mice.
The experimental timeline is represented in FIG. 53A. On day 0, GFP+FITC-CAR T cells [clone 4M5.3] were removed from cryopreservation, thawed and then infused intravenously into MDA-MB-231 tumor bearing NSG mice at 10 million per mouse [tumors ˜250 mm^3]. […]

For another data set, the system named is MDA-MB-231 tumors. As to the kind of experiment: Host mouse cytokines after NaFL rescue (Example 48). The data set is classed as in vivo, NSG mice. As to the method: In the first part of the study (FIG. 75), mice were treated with EC17 and FITC-CAR-T cells. When mice started to show sCRS, one dose of 60 umol/kg NaFL was injected for rescue. Mouse blood samples were then collected at both 7 hours and 27 hours post NaFL rescue. Mouse cytokine levels in blood were analyzed using a mouse inflammation panel kit (Cat. No. 740446) from BioLegend by following the manufacturer's instructions. FIGS. 76 A-E show cytokine levels 7 hours post rescue. FIGS. 77A-C show cytokine levels 27 hours post rescue.
In the second part of the study, a series of concentrations of NaFL were tested for their rescue efficiency (FIG. 78). As shown in FIGS. 79-81, mice cytokine levels in blood were also dependent on the concentrations of sodium fluorescein used for rescue, and the median effective dose is about 0.6 μmol/kg with cytokines tested (e.g. MCP-1, IL-6, and IL-10) and the mice started to respond as early as 3 hours post rescue.

On to `Nc1nc2ncc(CNc3ccc(C(=O)NC(CCC(=O)NCCNC(=S)Nc4ccc(-c5c6ccc(=O)cc-6oc6cc(O)ccc56)c(C(=O)O)c4)C(=O)O)cc3)nc2c(=O)[nH]1` (stereo not drawn) [EC17, FITC-Folate], for which, in the data set on MDA-MB-231 tumor (one dose EC17 500 nmol/kg), the “CAR T cells in circulation” value is given as “very few CAR T cells are detected in the circulation”. For the same compound, the “mouse cytokine levels in blood (MCP-1, IL-6, IL-10, IFN-β, TNF-α)” value in the data set with MDA-MB-231 tumors (EC17 dosed versus CAR-T without EC17) was “increased mouse cytokine levels”.

As to `O=C([O-])c1ccccc1-c1c2ccc(=O)cc-2oc2cc([O-])ccc12.[Na+].[Na+]` [sodium fluorescein], the “CAR T cells in circulation” value with MDA-MB-231 tumor (60 μmol/kg, 27 hours after rescue) was “CAR T cells reappear in the circulation”. In the data set on MDA-MB-231 tumor (0.06-6 μmol/kg), the “earliest increase of circulating CAR T cells” value was 3 h. Further, in the data set with MDA-MB-231 tumor (24 hours post rescue, 0.06-6 μmol/kg), the “CAR T cell extravasation into the blood” value is “increased in a sodium fluorescein dose-dependent manner”. Further, the “4-1BB (CD137) on circulating CAR T cells” value with MDA-MB-231 tumor (CAR T + EC17 + sodium fluorescein 60 μmol/kg) is given as “express significant amounts of 4-1BB”. The “mouse cytokine levels in blood” value with MDA-MB-231 tumors (60 μmol/kg, 7 hours and 27 hours post rescue) was “much lower than those in un-rescued mice”. Further, in the data set with MDA-MB-231 tumors (mouse, in vivo), the “earliest response post rescue” value amounted to 3 h and the “median effective dose (mouse MCP-1, IL-6, IL-10)” value is “about 0.6 μmol/kg”.
